Where “and” joins values, the source holds several entries; their conditions need not be identical. Equal entries are not always repeated.
Experiments:
bioavailability = test: bioavailability; set-up: species or system mammals; conditions: in vivo
[1] = bulk density determination; type: physicochemical
Text: Untapped density = 25 g/untapped volume. […] Tapped density = 25 g/Tapped volume.

[2] = mean mass diameter determination (laser diffraction); conditions: for Mean mass diameter: individual samples made by the procedure of example 1, laser diffraction
[3] = water

## C[C@H]1CCc2c(N3CCC(O)CC3)c(F)cc3c(=O)c(C(=O)O)cn1c23
bioavailability
  bioavailability: favorable bioavailability
[1]; 25 gm/tapped volume, tapped 150 times
  Bulk density (tapped): 0.64 g/mL
[1]; 25 gm/untapped volume
  Bulk density (untapped): 0.57 g/mL
[2]; hydrate
  Mean mass diameter: less than or equal to 40 µm
[2]; listed as Example 1, hydrate
  Mean mass diameter: 32.92 µm and 24.22 µm and 34.51 µm and 39.07 µm
[2]; mean of four samples
  Mean mass diameter, mean value: 32.68 µm

## CC1CCc2c(N3CCC(O)CC3)c(F)cc3c(=O)c(C(=O)O)cn1c23.N=C(N)NCCCC(N)C(=O)O (racemic) [R, S-9-fluoro-6,7-dihydro-8-(4-hydroxypiperidin-1-yl)-5-methyl-1-oxo-1H,5H-benzo [i,j]-quinolizine-2-carboxylic acid DL-arginine salt]
Antimicrobial activity
  antimicrobial activity: have antimicrobial activity

## CC1CCc2c(N3CCC(O)CC3)c(F)cc3c(=O)c(C(=O)O)cn1c23.N=C(N)NCCC[C@H](N)C(=O)O (racemic) [RS-(±)-9-fluoro-6,7-dihydro-8-(4-hydroxypiperidin-1-yl)-5-methyl-1-oxo-1H,5H-benzo[i,j]quinolizine-2-carboxylic acid L-arginine salt]
Antimicrobial activity
  antimicrobial activity: have antimicrobial activity

## CC1CCc2c(N3CCC(O)CC3)c(F)cc3c(=O)c(C(=O)O)cn1c23.N=C(N)NCCC[C@@H](N)C(=O)O (racemic) [RS-(±)-9-fluoro-6,7-dihydro-8-(4-hydroxypiuenidin-1-yl)-5-methyl-1-oxo-1H,5H-benzo[i,j]quinolizine-2-carboxylic acid D-argirrine salt]
Antimicrobial activity
  antimicrobial activity: have antimicrobial activity

## C[C@@H]1CCc2c(N3CCC(O)CC3)c(F)cc3c(=O)c(C(=O)O)cn1c23.N=C(N)NCCC[C@H](N)C(=O)O [R-(+)-9-fluoro-6,7-dihydro-8-(4-hydroxypipe-1-yl)-5-1-oxo-1H,5H-benzo[i,j]quinolizine-2-carboxylic acid L-arginine salt]
Antimicrobial activity
  antimicrobial activity: have antimicrobial activity

## C[C@@H]1CCc2c(N3CCC(O)CC3)c(F)cc3c(=O)c(C(=O)O)cn1c23.N=C(N)NCCC[C@@H](N)C(=O)O [R-(+)-9-fluoro-6,7-dihydro-8-(4-hydroxypiperidin-1-yl)-5-methyl-1-oxo-1H,5H-benzo[i,j]quinolizine-2-carboxylic acid D-arginine salt]
Antimicrobial activity
  antimicrobial activity: have antimicrobial activity

## C[C@H]1CCc2c(N3CCC(O)CC3)c(F)cc3c(=O)c(C(=O)O)cn1c23 [reference compound]
Antimicrobial activity
  antimicrobial activity compared with the R-(+)- and RS-(±)-acids: more potent antimicrobial activity
[3]
  aqueous solubility: 800 to 2000 µg/mL

## R-(+)-9-fluoro-6,7-dihydro-8-(4-hydroxypiperidin-1-yl)-5-methyl-1-oxo-1H,5H-benzo [ij]-quinolizine-2-carboxylic acid DL-arginine salt
Antimicrobial activity
  antimicrobial activity: have antimicrobial activity

## S-(-)-9-fluoro-6,7-dihydro-8-(4-hydroxypiperidin-1-yl)-5-methyl-1-oxo-1H,5H-benzo [ij]-quinolizine-2-carboxylic acid DL-arginine salt
Antimicrobial activity
  antimicrobial activity: have antimicrobial activity
